Values of other authors, collected in patent US20070098750A1, “PESTICIDAL COMPOSITIONS CONTAINING ISOPROPYL MYRISTATE AND ANALOGS OF SAME AS A SYNERGIST FOR PLANT ESSENTIAL OILS” (EcoSmart Technologies, Inc., priority 2005, published 2007).

In the case of CCCCOCCOCCOCc1cc2c(cc1CCC)OCO2 [PBO, piperonyl butoxide], the Chronic toxicity finding (even at the lowest doses, 30 mg/kg/day) is given as “increased liver weights” and the “Carcinogenicity finding in animal studies” value (even treatments as low as 1.2%) is given as “hepatocellular carcinomas”.
